From US8435928B2, “Herbicidal composition” (Ishihara Sangyo Kaisha, Ltd., priority 2007, dated 2013)

Assays:
crabgrass [1] = test: Test Example 7: foliar application of compound No. 2-1 wettable powder with surfactant, crabgrass; format: in vivo, Digitaria sanguinalis L.; conditions: 15 g a.i./ha wettable powder, 21st day
Source text: (§1) On the 21st day after the application, the state of growth of the plants was visually observed (growth inhibition rate (%)=0 (the same as the untreated plot) to 100 (complete kill)), and the results as shown in Tables b1 and b2 were obtained.
(§2) Upland field soil was put into a 1/1,000,000 ha pot, and seeds of crabgrass were sown and grown in a greenhouse. When crabgrass reached 4.0 to 5.0 leaf stage, a prescribed amount (15 g a.i./ha) of a wettable powder comprising compound No. 2-1 as an active ingredient, prepared in accordance with the above Example 1, was diluted with water corresponding to 300 L/ha (containing 0.05 vol % of a surfactant containing the POA alkyl ether phosphate), followed by foliar application. Further, for comparison, foliar application was carried out in the same manner by using a silicon surfactant (tradename: SILWETT L-77) at a concentration of 0.1 vol % instead of the above surfactant.
On the 21st day after the application, the state of growth of the plant was evaluated in the same manner as in Test Example 1, and the results as shown in Table b10 were obtained.

crabgrass [2] = test: Test Example 9: foliar application of compound No. 2-39 wettable powder with surfactant, crabgrass; format: in vivo, Digitaria sanguinalis L.; conditions: 15 g a.i./ha wettable powder, 21st day
Source text: as §1
as §2, with “4.5” for “5.0”, “2-39” for “2-1”, “using” for “using a silicon surfactant (tradename:”, “L-77” for “L-77)”
On the 21st day after the application, the state of growth of the plant was evaluated in the same manner as in Test Example 1, and the results as shown in Table b13 were obtained.

[3] = tested on: crabgrass (Digitaria sanguinalis L.); test: Test Example 1: foliar application of compound No. 1 wettable powder with surfactant, visual growth inhibition, crabgrass; format: in vivo; conditions: 15 g a.i./ha wettable powder, 21st day
Protocol: (§3) Upland field soil was put into a 1/1,000,000 ha pot, and seeds of crabgrass (Digitaria sanguinalis L.) and velvetleaf (Abutilon theophrasti L.) were respectively sown and grown in a greenhouse. When crabgrass reached 4.2 to 5.0 leaf stage and velvetleaf reached 3.5 to 4.3 leaf stage, a prescribed amount (15 g a.i./ha) of a wettable powder comprising compound No. 1 as an active ingredient, prepared in accordance with the above Example 1, was diluted with water corresponding to 300 L/ha (containing 0.05 vol % of a surfactant containing the POA alkyl ether phosphate), followed by foliar application (the present invention). Further, for comparison, foliar application was carried out in the same manner by using an alkylaryl polyglycol ether surfactant (tradename: CITOWETT) at a concentration of 0.1 vol %, instead of the above surfactant (comparison).
as §1

[4] = tested on: velvetleaf (Abutilon theophrasti L.); test: Test Example 1: foliar application of compound No. 1 wettable powder with surfactant, visual growth inhibition, velvetleaf; format: in vivo; conditions: 15 g a.i./ha wettable powder, 21st day
Protocol: as §3, §1

[5] = tested on: crabgrass (Digitaria sanguinalis L.); test: Test Example 4: foliar application of compound No. 2-27 wettable powder with surfactant, crabgrass; format: in vivo; conditions: 15 g a.i./ha wettable powder, 21st day
Protocol: as §3, §1
(§4) The results as shown in Tables b6 and b7 were obtained in the same manner as in the above Test Example 1 except that a prescribed amount (15 g a.i./ha or 7 g a.i./ha) of a wettable powder comprising compound No. 2-27 as an active ingredient, prepared in accordance with the above Example 4, was used.

[6] = tested on: velvetleaf (Abutilon theophrasti L.); test: Test Example 4: foliar application of compound No. 2-27 wettable powder with surfactant, velvetleaf; format: in vivo; conditions: 7 g a.i./ha wettable powder, 21st day
Protocol: as §3, §1, §4

crabgrass [7] = test: Test Example 11: foliar application of compound No. 4-3 wettable powder with surfactant, crabgrass; format: in vivo, Digitaria sanguinalis L.; conditions: 15 g a.i./ha wettable powder, 21st day
Source text: as §1
as §2, with “4-3” for “2-1”, “using” for “using a silicon surfactant (tradename:”, “L-77 (tradename)” for “L-77)”
On the 21st day after the application, the state of growth of the plant was evaluated in the same manner as in Test Example 1, and the results as shown in Table b16 were obtained.

[8] = tested on: velvetleaf (Abutilon theophrasti L.); test: Test Example 2: foliar application of compound No. 53 suspension concentrate with surfactant, velvetleaf; format: in vivo; conditions: 15 g a.i./ha water-based suspension concentrate, 21st day
Protocol: as §3, §1
(§5) The results as shown in Tables b3 and b4 were obtained in the same manner as the above Test Example 1 except that a prescribed amount (15 g a.i./ha) of a water-based suspension concentrate comprising compound No. 53 as an active ingredient, prepared in accordance with the above Example 2, was used.

[9] = tested on: crabgrass (Digitaria sanguinalis L.); test: Test Example 2: foliar application of compound No. 53 suspension concentrate with surfactant, crabgrass; format: in vivo; conditions: 15 g a.i./ha water-based suspension concentrate, 21st day
Protocol: as §3, §1, §5

crabgrass [10] = test: Test Example 6: foliar application of compound No. 238 suspension concentrate with surfactant and optional oil or emulsifying agent, crabgrass; format: in vivo, Digitaria sanguinalis L.; conditions: 7 g a.i./ha suspension concentrate, ADEKA COL PS-440E 0.03 vol %, 20th day
Source text: as §1
Upland field soil was put into a 1/1,000,000 ha pot, and seeds of crabgrass were sown and grown in a greenhouse. When crabgrass reached 3.8 to 4.1 leaf stage, a prescribed amount (7 g a.i./ha) of a water-based suspension concentrate comprising compound No. 238 as an active ingredient, prepared in accordance with the above Example 3, was diluted with water corresponding to 300 L/ha (containing 0.03 vol % of a surfactant containing the POA alkyl ether phosphate and optionally having 0.03 vol % of a fatty acid ester, a hydrocarbon solvent or an emulsifying agent added), followed by foliar application. The fatty acid ester used here was AGNIQUE Me 18RD-F (tradename), the hydrocarbon solvent was Solvesso 150 (tradename) and the emulsifying agent was a mixture of a polyoxyethylene sorbitol tetraoleate, a polyoxyethylene castor oil and calcium dodecylbenzene sulfonate.
On the 20th day after the application, the state of growth of the plant was evaluated in the same manner as in Test Example 1, and the results as shown in Table b9 were obtained.

crabgrass [11] = test: Test Example 3: foliar application of compound No. 238 suspension concentrate with surfactant, crabgrass; format: in vivo, Digitaria sanguinalis L.; conditions: 30 g a.i./ha water-based suspension concentrate, 21st day
Source text: On the 21st day after the application, the state of growth of the plants was visually observed (growth inhibition rate (%)=0 (the same as the untreated plot) to 100 (complete kill)), and the results as shown in Tables b1 and b2 were obtained. Upland field soil was put into a 1/1,000,000 ha pot, and seeds of crabgrass were sown and grown in a greenhouse. When crabgrass reached 4.5 to 5.0 leaf stage, a prescribed amount (30 g a.i./ha) of a water-based suspension concentrate comprising compound No. 238 as an active ingredient, prepared in accordance with the above Example 6, was diluted with water corresponding to 300 L/ha (containing 0.05 vol % of a surfactant containing the POA alkyl ether phosphate), followed by foliar application. Further, for comparison, foliar application was carried out in the same manner by using CITOWETT (tradename) at a concentration of 0.3 vol %, instead of the above surfactant. On the 21st day after the application, the state of growth of the plant was evaluated in the same manner as in Test Example 1, and the results as shown in Table b5 were obtained.

[12] = surfactant PHOSPHANOL RS-710 0.05 vol %, present invention
[13] = surfactant PLYSURF A219B 0.05 vol %, present invention
[14] = surfactant SILWETT L-77 0.1 vol %, comparison
[15] = surfactant ADECA COL PS-440E 0.05 vol %, present invention
[16] = surfactant NIKKOL DDP-8 0.05 vol %, present invention
[17] = surfactant PHOSPHANOL RS-410 0.05 vol %, present invention
[18] = surfactant CITOWETT 0.1 vol %, comparison
[19] = surfactant NIKKOL TDP-8 0.05 vol %, present invention

## COC(=O)c1c(S(C)(=O)=O)ccc(C(=O)c2cnn(C)c2O)c1C [2-1]
Crabgrass [1]; [12]
  Growth inhibition rate (%) of crabgrass: 75%
Crabgrass [1]; [13]
  Growth inhibition rate (%) of crabgrass: 70%
Crabgrass [1]; [14]
  Growth inhibition rate (%) of crabgrass: 10%

## CCOCc1c(S(C)(=O)=O)ccc(C(=O)c2cnn(C)c2O)c1C [2-39]
Crabgrass [2]; [15]
  Growth inhibition rate (%) of crabgrass: 93%
Crabgrass [2]; [16]
  Growth inhibition rate (%) of crabgrass: 93%
Crabgrass [2]; [17]
  Growth inhibition rate (%) of crabgrass: 70%
Crabgrass [2]; [14]
  Growth inhibition rate (%) of crabgrass: 20%

## CCSC(=O)Oc1c(C(=O)c2ccc(S(C)(=O)=O)c(C(=O)OC)c2C)cnn1C [Compound No. 1]
[3]; [15]
  Growth inhibition rate (%) of crabgrass: 70%
[3]; [18]
  Growth inhibition rate (%) of crabgrass: 50%
[3]; [16]
  Growth inhibition rate (%) of crabgrass: 73%
[3]; [13]
  Growth inhibition rate (%) of crabgrass: 60%
[4]; [15]
  Growth inhibition rate (%) of velvetleaf: 93%
[4]; [18]
  Growth inhibition rate (%) of velvetleaf: 73%
[4]; [16]
  Growth inhibition rate (%) of velvetleaf: 93%
[4]; [13]
  Growth inhibition rate (%) of velvetleaf: 90%

## COCCOc1c(S(C)(=O)=O)ccc(C(=O)c2cnn(C)c2O)c1C [Compound No. 2-27]
[5]; [15]
  Growth inhibition rate (%) of crabgrass: 90%
[5]; [18]
  Growth inhibition rate (%) of crabgrass: 78%
[5]; [16]
  Growth inhibition rate (%) of crabgrass: 90%
[5]; [13]
  Growth inhibition rate (%) of crabgrass: 94%
[6]; [15]
  Growth inhibition rate (%) of velvetleaf: 80%
[6]; [18]
  Growth inhibition rate (%) of velvetleaf: 63%
[6]; [16]
  Growth inhibition rate (%) of velvetleaf: 95%
[6]; [13]
  Growth inhibition rate (%) of velvetleaf: 70%

## CCOC(=O)OC(C)Oc1c(C(=O)c2ccc(S(C)(=O)=O)c(OCCOC)c2C)cnn1CC (centres unmarked) [Compound No. 4-3]
Crabgrass [7]; [15]
  Growth inhibition rate (%) of crabgrass: 83%
Crabgrass [7]; [16]
  Growth inhibition rate (%) of crabgrass: 80%
Crabgrass [7]; [19]
  Growth inhibition rate (%) of crabgrass: 85%
Crabgrass [7]; surfactant PHOSPHANOL ML-240 0.05 vol %, present invention
  Growth inhibition rate (%) of crabgrass: 90%
Crabgrass [7]; [17]
  Growth inhibition rate (%) of crabgrass: 80%
Crabgrass [7]; [12]
  Growth inhibition rate (%) of crabgrass: 80%
Crabgrass [7]; surfactant PHOSPHOLAN PS-236 0.05 vol %, present invention
  Growth inhibition rate (%) of crabgrass: 80%
Crabgrass [7]; [13]
  Growth inhibition rate (%) of crabgrass: 98%
Crabgrass [7]; [14]
  Growth inhibition rate (%) of crabgrass: 55%

## CCSC(=O)Oc1c(C(=O)c2ccc(S(C)(=O)=O)c(OCCOC)c2C)cnn1C [Compound No. 53]
[8]; [15]
  Growth inhibition rate (%) of velvetleaf: 93%
[8]; [18]
  Growth inhibition rate (%) of velvetleaf: 78%
[8]; [16]
  Growth inhibition rate (%) of velvetleaf: 98%
[8]; [13]
  Growth inhibition rate (%) of velvetleaf: 90%
[9]; [15]
  Growth inhibition rate (%) of crabgrass: 90%
[9]; [18]
  Growth inhibition rate (%) of crabgrass: 50%
[9]; [16]
  Growth inhibition rate (%) of crabgrass: 90%
[9]; [13]
  Growth inhibition rate (%) of crabgrass: 78%

## COCCOc1c(S(C)(=O)=O)ccc(C(=O)c2cnn(C)c2OC(=O)SC(C)(C)C)c1C [Compound No. 238]
Crabgrass [10]; fatty acid ester and emulsifying agent added
  Growth inhibition rate (%) of crabgrass: 83%
Crabgrass [10]; fatty acid ester, hydrocarbon solvent and emulsifying agent added
  Growth inhibition rate (%) of crabgrass: 85%
Crabgrass [10]; hydrocarbon solvent and emulsifying agent added
  Growth inhibition rate (%) of crabgrass: 83%
Crabgrass [10]; no fatty acid ester, hydrocarbon solvent or emulsifying agent
  Growth inhibition rate (%) of crabgrass: 73%
Crabgrass [11]; surfactant ADEKA COL PS-440E 0.05 vol %, present invention
  Growth inhibition rate (%) of crabgrass: 75%
Crabgrass [11]; surfactant CITOWETT 0.3 vol %, comparison
  Growth inhibition rate (%) of crabgrass: 50%
Crabgrass [11]; [16]
  Growth inhibition rate (%) of crabgrass: 90%
Crabgrass [11]; [19]
  Growth inhibition rate (%) of crabgrass: 90%
Crabgrass [11]; surfactant PHOSPHANOL RS710 0.05 vol %, present invention
  Growth inhibition rate (%) of crabgrass: 80%
Crabgrass [11]; [13]
  Growth inhibition rate (%) of crabgrass: 90%
